{"source": "patent US20240024273A1", "about": "“TOPICAL ADMINISTRATION OF 2-(DIETHYLAMINO)ETHYL 2-(4-ISOBUTYLPHENYL)PROPRIONATE FOR TREATMENT OF DISEASES” (TECHFIELDS PHARMA CO., LTD., priority 2020, published 2024)", "key": {"[1]": {"test_system": "Mild to Moderate Osteoarthritis of the Knee", "assay": "Phase 2 study: use of rescue medication (paracetamol)", "type": "in vivo, human", "conditions": "for Percentage of patients using rescue medication: only for knee pain", "protocol": "Subjects taking nonsteroidal anti-inflammatory drugs (NSAID) or other analgesics may enroll in the trial, but will discontinue any analgesic therapy for the duration of the study, starting at least 4 days (or 5 half lives, whichever is longer) prior to administration of the first dose of study medication (i.e., for an analgesic washout period before Day 1). Subjects will be allowed to take rescue medication (up to six 325 mg tablets [total of 1950 mg] of acetaminophen per day; provided by the Sponsor) for residual knee or other body pain starting 4 days (or 5 half lives, whichever is longer) prior to administration of the first dose of study medication except during the 24 hours prior to Baseline (Day 1), Week 2, Week 4, Week 8, Week 12/end of study (EOS), and Follow up assessments.\nSubjects will record the following information in a Daily Diary starting at Screening: the amount of knee pain in the target knee while walking during the preceding 24 hours (using a 100 mm visual analog scale [VAS]), the times and number of sprays for each administration of study medication, the times when the subject washes his/her knees and/or takes a shower, the number of tablets of rescue medication taken that day and the times taken, the reason for taking the rescue medication (e.g., knee pain, headache, low back pain), any other concomitant medications taken that day, and any AEs occurring that day.\n3.9.3. Exploratory Efficacy Endpoints: • 1. Subject's global assessment of disease status of the target knee at 2, 4, 8, and 12 weeks of treatment; • 2. Investigator's global assessment of disease status of the target knee at 2, 4, 8, and 12 weeks of treatment; • 3. Subject's global assessment of response to therapy of the target knee at 2, 4, 8, and 12 weeks of treatment; • 4. Investigator's global assessment of response to therapy of the target knee at 2, 4, 8, and 12 weeks of treatment; • 5. Change from Baseline over time in VAS pain scores for the target knee from Daily Diary data; • 6. Amount of rescue medication (acetaminophen) consumed per day for target knee pain.\nZeidler thought that paracetamol as rescue medication in nearly all OA trials may be a missing link to explain at least partially the large placebo response in OA trials. (Henning Zeidler, Paracetamol and the Placebo Effect in Osteoarthritis Trials: A Missing Link? Pain Research and Treatment, Volume 2011, 1-6.) From published data, the difference of the used amount of paracetamol is very small between the placebo and active drug cohorts. […] (T. J. Schnitzer, A. Kivitz, H. Frayssinet, and B. Duquesroix, “Efficacy and safety of naproxcinod in the treatment of patients with osteoarthritis of the knee: a 13-week prospective, randomized, multicenter study.” Osteoarthritis and Cartilage, vol. 18, no. 5, pp. 629-639, 2010.) In this trial, NSAIDs or any analgesic therapy was discontinued for the duration of the study, starting at least 14 days (or 5 half lives, whichever is longer) prior to administration of the first dose of study medication (ie, for an analgesic washout period before Day 1). Subjects were allowed to take rescue medication (up to six 325 mg tablets [total of 1950 mg] of acetaminophen per day; provided by the Sponsor) for residual knee or other body pain starting at least 4 days (or 5 half lives, whichever is longer) prior to administration of the first dose of study medication except during the 24 hours prior to Baseline (Day 1), Week 2, Week 4, Week 8, Week 12/end of study (EOS), and Follow-up assessments."}, "[2]": {"assay": "In vitro half-life in plasma", "type": "in vitro ADME"}, "[3]": {"conditions": "for all pain and other conditions, 17.5 mg/knee (BID), Week 8"}, "[4]": {"conditions": "for all pain and other conditions, 17.5 mg/knee (BID), Week 12"}, "[5]": {"conditions": "for all pain and other conditions, 35 mg/knee (BID), Week 2"}, "[6]": {"conditions": "for all pain and other conditions, 35 mg/knee (BID), Week 4"}, "[7]": {"conditions": "for all pain and other conditions, 35 mg/knee (BID), Week 8"}, "[8]": {"conditions": "for all pain and other conditions, 35 mg/knee (BID), Week 12"}}, "data": [{"compound": "CCN(CC)CCOC(=O)C(C)c1ccc(CC(C)C)cc1", "note": "(stereo not drawn) [2-(diethylamino)ethyl 2-(4-isobutylphenyl)propionate]", "values": [{"measurement": "Rescue medication (paracetamol), % of decrease from baseline", "setting": "[1]; for all pain and other conditions, 17.5 mg/knee (BID), Week 4", "result": 58.6, "unit": "%"}, {"measurement": "Daily amount of rescue medication (paracetamol)", "setting": "[1]; [3]", "result": 87, "unit": "mg/day/patient"}, {"measurement": "Rescue medication (paracetamol), % of decrease from baseline", "setting": "[1]; [3]", "result": 68.7, "unit": "%"}, {"measurement": "Daily amount of rescue medication (paracetamol)", "setting": "[1]; [4]", "result": 69, "unit": "mg/day/patient"}, {"measurement": "Rescue medication (paracetamol), % of decrease from baseline", "setting": "[1]; [4]", "result": 75.2, "unit": "%"}, {"measurement": "Daily amount of rescue medication (paracetamol)", "setting": "[1]; for all pain and other conditions, 35 mg/knee (BID), Day −2 to day −5 (baseline)", "result": 310, "unit": "mg/day/patient"}, {"measurement": "Daily amount of rescue medication (paracetamol)", "setting": "[1]; [5]", "result": 171, "unit": "mg/day/patient"}, {"measurement": "Rescue medication (paracetamol), % of decrease from baseline", "setting": "[1]; [5]", "result": 44.8, "unit": "%"}, {"measurement": "Daily amount of rescue medication (paracetamol)", "setting": "[1]; [6]", "result": 158, "unit": "mg/day/patient"}, {"measurement": "Rescue medication (paracetamol), % of decrease from baseline", "setting": "[1]; [6]", "result": 49.0, "unit": "%"}, {"measurement": "Daily amount of rescue medication (paracetamol)", "setting": "[1]; [7]", "result": 111, "unit": "mg/day/patient"}, {"measurement": "Rescue medication (paracetamol), % of decrease from baseline", "setting": "[1]; [7]", "result": 64.2, "unit": "%"}, {"measurement": "Daily amount of rescue medication (paracetamol)", "setting": "[1]; [8]", "result": 94, "unit": "mg/day/patient"}, {"measurement": "Rescue medication (paracetamol), % of decrease from baseline", "setting": "[1]; [8]", "result": 69.7, "unit": "%"}, {"measurement": "Daily amount of rescue medication (paracetamol)", "setting": "[1]; for other conditions excluding knee pain, 8.75 mg/knee (BID), Day −2 to day −5 (baseline)", "result": 15, "unit": "mg/day/patient"}, {"measurement": "Daily amount of rescue medication (paracetamol)", "setting": "[1]; for other conditions excluding knee pain, 8.75 mg/knee (BID), Week 2", "result": 47, "unit": "mg/day/patient"}, {"measurement": "Daily amount of rescue medication (paracetamol)", "setting": "[1]; for other conditions excluding knee pain, 8.75 mg/knee (BID), Week 4", "result": 41, "unit": "mg/day/patient"}, {"measurement": "Daily amount of rescue medication (paracetamol)", "setting": "[1]; for other conditions excluding knee pain, 8.75 mg/knee (BID), Week 8", "result": 44, "unit": "mg/day/patient"}, {"measurement": "Daily amount of rescue medication (paracetamol)", "setting": "[1]; for other conditions excluding knee pain, 8.75 mg/knee (BID), Week 12", "result": 50, "unit": "mg/day/patient"}, {"measurement": "Daily amount of rescue medication (paracetamol)", "setting": "[1]; for other conditions excluding knee pain, 17.5 mg/knee (BID), Day −2 to day −5 (baseline)", "result": 35, "unit": "mg/day/patient"}, {"measurement": "Daily amount of rescue medication (paracetamol)", "setting": "[1]; for other conditions excluding knee pain, 17.5 mg/knee (BID), Week 2", "result": 50, "unit": "mg/day/patient"}, {"measurement": "Daily amount of rescue medication (paracetamol)", "setting": "[1]; for other conditions excluding knee pain, 17.5 mg/knee (BID), Week 4", "result": 48, "unit": "mg/day/patient"}, {"measurement": "Daily amount of rescue medication (paracetamol)", "setting": "[1]; for other conditions excluding knee pain, 17.5 mg/knee (BID), Week 8", "result": 33, "unit": "mg/day/patient"}, {"measurement": "Daily amount of rescue medication (paracetamol)", "setting": "[1]; for other conditions excluding knee pain, 17.5 mg/knee (BID), Week 12", "result": 13, "unit": "mg/day/patient"}, {"measurement": "Daily amount of rescue medication (paracetamol)", "setting": "[1]; for other conditions excluding knee pain, 35 mg/knee (BID), Day −2 to day −5 (baseline)", "result": 19, "unit": "mg/day/patient"}, {"measurement": "Daily amount of rescue medication (paracetamol)", "setting": "[1]; for other conditions excluding knee pain, 35 mg/knee (BID), Week 2", "result": 73, "unit": "mg/day/patient"}, {"measurement": "Daily amount of rescue medication (paracetamol)", "setting": "[1]; for other conditions excluding knee pain, 35 mg/knee (BID), Week 4", "result": 70, "unit": "mg/day/patient"}, {"measurement": "Daily amount of rescue medication (paracetamol)", "setting": "[1]; for other conditions excluding knee pain, 35 mg/knee (BID), Week 8", "result": 57, "unit": "mg/day/patient"}, {"measurement": "Daily amount of rescue medication (paracetamol)", "setting": "[1]; for other conditions excluding knee pain, 35 mg/knee (BID), Week 12", "result": 50, "unit": "mg/day/patient"}, {"measurement": "maximum decrease of rescue medication for all pain, pre-treatment to week 12", "setting": "[1]; in vivo", "result": "up to 75%"}, {"measurement": "Percentage of patients using rescue medication", "setting": "[1]; 8.75 mg/knee (BID), Day −2 to day −5 (baseline)", "result": 35.3, "unit": "%"}, {"measurement": "Percentage of patients using rescue medication", "setting": "[1]; 8.75 mg/knee (BID), Week 2", "result": 23.6, "unit": "%"}, {"measurement": "Percentage of patients using rescue medication", "setting": "[1]; 8.75 mg/knee (BID), Week 4", "result": 18.4, "unit": "%"}, {"measurement": "Percentage of patients using rescue medication", "setting": "[1]; 8.75 mg/knee (BID), Week 8", "result": 17.1, "unit": "%"}, {"measurement": "Percentage of patients using rescue medication", "setting": "[1]; 8.75 mg/knee (BID), Week 12", "result": 16.3, "unit": "%"}, {"measurement": "Percentage of patients using rescue medication", "setting": "[1]; 17.5 mg/knee (BID), Day −2 to day −5 (baseline)", "result": 24.0, "unit": "%"}, {"measurement": "Percentage of patients using rescue medication", "setting": "[1]; 17.5 mg/knee (BID), Week 2", "result": 11.3, "unit": "%"}, {"measurement": "Percentage of patients using rescue medication", "setting": "[1]; 17.5 mg/knee (BID), Week 4", "result": 8.4, "unit": "%"}, {"measurement": "Percentage of patients using rescue medication", "setting": "[1]; 17.5 mg/knee (BID), Week 8", "result": 7.2, "unit": "%"}, {"measurement": "Percentage of patients using rescue medication", "setting": "[1]; 17.5 mg/knee (BID), Week 12", "result": 6.5, "unit": "%"}, {"measurement": "Percentage of patients using rescue medication", "setting": "[1]; 35 mg/knee (BID), Day −2 to day −5 (baseline)", "result": 34.8, "unit": "%"}, {"measurement": "Percentage of patients using rescue medication", "setting": "[1]; 35 mg/knee (BID), Week 2", "result": 12.4, "unit": "%"}, {"measurement": "Percentage of patients using rescue medication", "setting": "[1]; 35 mg/knee (BID), Week 4", "result": 11.0, "unit": "%"}, {"measurement": "Percentage of patients using rescue medication", "setting": "[1]; 35 mg/knee (BID), Week 8", "result": 7.6, "unit": "%"}, {"measurement": "Percentage of patients using rescue medication", "setting": "[1]; 35 mg/knee (BID), Week 12", "result": 5.8, "unit": "%"}, {"measurement": "maximum decrease in the use of rescue medication, paracetamol", "setting": "[1]; pre-treatment to week 12", "result": 84.9, "unit": "%"}, {"measurement": "fraction metabolized to ibuprofen in any human tissue (except skin)", "setting": "[2]", "result": "> 99.9", "unit": "%"}, {"measurement": "half-life", "setting": "[2]; in plasma, read-out: in vitro T1/2", "result": "~4", "unit": "min"}]}]}
